Activity calls are given as the source filed them. No cut-off for these calls is given here.
Assays:
[1] = system: HeLa; assay: Antitumor activity against human HeLa cells xenografted in female BALB/c mouse assessed as reduction in tumor weight at 4 mg/kg administered every four days and measured after 26 days relative to control; format: functional; design: scale not given: the % may be the effect or the level left; conditions: time 26 day
[2] = system: HeLa; assay: Inhibition of colony formation in ATG5 deficient human HeLa cells at 0.15 to 0.6 uM incubated for 24 hrs by crystal violet staining based analysis; format: functional, cell-based; conditions: dose 0.15-0.6 µM
[3] = system: HeLa; assay: Antiproliferative activity against Bax deficient human HeLa cells assessed as inhibition of cell viability incubated for 24 hrs by CCK8 assay; format: functional, cell-based
[4] = system: Ca-Ski; assay: Inhibition of cell migration in human Ca Ski cells at 0.5 to 1 uM measured after 24 hrs by transwell migration assay; format: functional, cell-based; conditions: dose 0.5-1 µM
[5] = system: HeLa; assay: Effect on PARP expression level in p53 deficient human HeLa cells at 0.6 to 1.2 uM incubated for 24 hrs by Western blot analysis; format: functional, cell-based; conditions: dose 0.6-1.2 µM
[6] = system: HeLa; assay: Induction of autophagy in human HeLa cells assessed as increase in p62 level at 0.3 to 1.2 microM incubated for 24 hrs by Western blot analysis; format: functional, cell-based; conditions: dose 0.3-1.2 µM
[7] = system: HeLa; assay: Induction of apoptosis in human HeLa cells assessed as early apoptotic cells at 0.6 uM incubated for 24 hrs by Annexin V-FITC/PI staining based flow cytometric analysis (reference value: 0.97 %); format: functional
[8] = system: HeLa; assay: Antitumor activity against human HeLa cells xenografted in female BALB/c mouse assessed as inhibition of tumor progression at 4 to 8 mg/kg administered every four days and measured after 26 days by imaging analysis; format: functional, organism-based; conditions: dose 4-8 mg/kg, time 26.0 day
[9] = system: Ca-Ski; assay: Induction of apoptosis in human Ca Ski cells assessed as late apoptotic cells at 1 uM preincubated with Z-VAD-FMK for 1 hrs followed by compound addition and measured after 24 hrs by Annexin V-FITC/PI staining based flow cytometric analysis (reference value: 5.30 %); format: functional
[10] = system: C-33-A; assay: Inhibition of colony formation in human C-33-A cells assessed as reduction in colony forming unit count at 0.05 to 0.2 uM incubated for 24 hrs by crystal violet staining based analysis; format: functional, cell-based; conditions: dose 0.05-0.2 µM
[11] = system: HeLa; assay: Upregulation of autophagy pathway related gene expression in human HeLa cells at 1.2 uM incubated for 24 hrs by GSVA enrichment analysis; format: functional, cell-based
[12] = system: HeLa; assay: Antiproliferative activity against ATG7 deficient human HeLa cells assessed as inhibition of cell viability incubated for 24 hrs by CCK8 assay; format: functional, cell-based
[13] = system: Ca-Ski; assay: Antiproliferative activity against human Ca Ski cells assessed as inhibition of cell growth at 0.4 to 1.6 uM by CCK8 assay; format: functional, cell-based; conditions: dose 0.4-1.6 µM, time 6.0 day
[14] = system: Ca-Ski; assay: Induction of apoptosis in human Ca Ski cells assessed as necrotic cells at 0.5 uM incubated for 24 hrs by Annexin V-FITC/PI staining based flow cytometric analysis (reference value: 3.15 %); format: functional
[15] = system: Ca-Ski; assay: Effect on ACSL4 protein expression level in human Ca Ski cells at 0.5 uM incubated for 24 hrs by Western blot analysis; format: functional, cell-based
[16] = system: Ca-Ski; assay: Effect on cleaved caspase 3 expression level in Bax deficient human Ca Ski cells at 0.5 to 1 uM incubated for 24 hrs by Western blot analysis; format: functional, cell-based; conditions: dose 0.5-1 µM
[17] = system: HeLa; assay: Induction of apoptosis in human HeLa cells assessed as late apoptotic cells at 0.6 uM incubated for 24 hrs by Annexin V-FITC/PI staining based flow cytometric analysis (reference value: 0.94 %); format: functional
[18] = system: HeLa; assay: Antitumor activity against human HeLa cells xenografted in female BALB/c mouse assessed as reduction in Ki67 expression in tumor at 4 to 8 mg/kg administered every four days and measured after 26 days by immunohistochemical analysis; format: functional, organism-based; conditions: dose 4-8 mg/kg, time 26.0 day
[19] = system: SiHa; assay: Induction of morphological changes in human SiHa cells assessed as decrease in cell adherence to culture dish at 0.5 to 2 uM by microphotographic analysis; format: functional, cell-based; conditions: dose 0.5-2 µM
[20] = system: Ca-Ski; assay: Induction of autophagy in human Ca Ski cells assessed as increase in p62 level at 0.25 to 1 microM incubated for 24 hrs by Western blot analysis; format: functional, cell-based; conditions: dose 0.25-1 µM
[21] = Toxicity in female BALB/c mouse xenografted with human HeLa cells assessed as effect on ALT level at 4 to 8 mg/kg administered every four days and measured after 26 days; format: organism-based; conditions: in vivo, 624 h, dose 4-8 mg/kg, time 26 day

Compound: COc1cccc(Nc2ccnc3cc(OCCCCCOc4ccc5c(Nc6cccc(OC)c6)ccnc5c4)ccc23)c1
- Activity [1]: 46.27%
- inhibition [2]: Minimal_effect
- IC50 [3]: 1320 nM
- inhibition [4]: Active
- Activity [5]: inactive
- Activity [6]: Active
- Activity [7]: 0.8%
- Activity [8]: Active
- Activity [9]: 6.59%
- inhibition [10]: Active
- Activity [11]: Active
- IC50 [12]: 2310 nM
- Activity [13]: Time-dependent-effect
- Activity [14]: 0.64%
- Activity [15]: Moderate_effect
- Activity [16]: inactive
- Activity [17]: 2.27%
- Activity [18]: Active
- Activity [19]: Active
- Activity [20]: Active
- Activity [21]: Non-toxic
